Laboratory results published in ChEMBL document CHEMBL5260810, “Inhibition of bromodomain-containing protein 9 for the prevention of epigenetically-defined drug resistance” (Bioorg Med Chem Lett, 2017).
The source made the active and inactive calls. No cut-off for these calls is given here.

What was measured:
[1] = system: HPAC; assay: Antiproliferative activity against HPAC assessed as reduction in colony formation upto 20 uM supplemented with fresh medium containing compound every 3 days for 9 days by MTT staining based clonogenic assay; type: functional, cell-based; details: Homo sapiens, time 9.0 day
[2] = system: A2058; assay: Antiproliferative activity against human A2058 cells assessed as reduction in colony formation upto 20 uM supplemented with fresh medium containing compound every 3 days for 9 days by MTT staining based clonogenic assay; type: functional, cell-based; details: time 9.0 day
[3] = system: REH; assay: Cytotoxicity against human REH cells measured after 8 days; type: functional, cell-based; details: 192 h
[4] = system: Toledo; assay: Cytotoxicity against human Toledo cells measured after 8 days; type: functional, cell-based; details: 192 h
[5] = system: THP-1; assay: Cytotoxicity against human THP-1 cells measured after 8 days; type: functional, cell-based; details: THP-1, 192 h
[6] = system: NB-4; assay: Cytotoxicity against human NB-4 cells measured after 8 days; type: functional, cell-based; details: NB-4, 192 h
[7] = Lipophilicity, log D of the compound at pH 7.4; type: physicochemical; details: buffer
[8] = target: T1, Bromodomain-containing protein 9 (Homo sapiens) (UniProt Q9H8M2); assay: Binding affinity to BRD9 in human PC-9 cell lysate assessed as increase in thermal stabilization at 2 uM at 44 to 50 degreeC measured after 30 mins by CETSA; type: subcellular
T1 sequence (whole entry): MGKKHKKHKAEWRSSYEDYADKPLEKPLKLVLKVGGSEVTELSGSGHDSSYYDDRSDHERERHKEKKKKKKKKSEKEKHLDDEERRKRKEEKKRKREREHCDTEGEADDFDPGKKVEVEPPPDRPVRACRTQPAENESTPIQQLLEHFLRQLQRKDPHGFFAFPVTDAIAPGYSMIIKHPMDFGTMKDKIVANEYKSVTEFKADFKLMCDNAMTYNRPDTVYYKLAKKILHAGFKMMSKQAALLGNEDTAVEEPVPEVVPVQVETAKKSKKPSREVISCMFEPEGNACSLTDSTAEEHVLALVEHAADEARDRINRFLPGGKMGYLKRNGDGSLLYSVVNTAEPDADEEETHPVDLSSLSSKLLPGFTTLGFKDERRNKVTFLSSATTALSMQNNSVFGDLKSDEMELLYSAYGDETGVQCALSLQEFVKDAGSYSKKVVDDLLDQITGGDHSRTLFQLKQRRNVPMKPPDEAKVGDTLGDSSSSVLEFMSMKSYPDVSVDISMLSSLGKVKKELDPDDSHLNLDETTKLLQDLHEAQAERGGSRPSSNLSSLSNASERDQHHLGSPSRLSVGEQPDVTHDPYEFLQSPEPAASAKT

[9] = system: CA46; assay: Cytotoxicity against human CA46 cells measured after 3 days; type: functional, cell-based; details: CA46, 72 h
[10] = Cytotoxicity against human KMS-26 cells measured after 3 days; type: functional, cell-based; details: KMS-26, 72 h
[11] = Cytotoxicity against human KMS-28PE cells measured after 3 days; type: functional, cell-based; details: 72 h
[12] = system: MOLM-13; assay: Cytotoxicity against human MOLM-13 cells measured after 3 days; type: functional, cell-based; details: MOLM-13, 72 h
[13] = system: Raji; assay: Cytotoxicity against human Raji cells measured after 3 days; type: functional, cell-based; details: 72 h
[14] = system: EB2; assay: Cytotoxicity against human EB2 cells measured after 3 days; type: functional, cell-based; details: EB2, 72 h
[15] = system: EOL1; assay: Cytotoxicity against human EOL1 cells measured after 3 days; type: functional, cell-based; details: EOL1, 72 h
[16] = system: Hep 3B2; assay: Cytotoxicity against human Hep 3B2.1-7 cells measured after 3 days; type: functional, cell-based; details: Hep3B, 72 h
[17] = system: Huh-7; assay: Cytotoxicity against human Huh-7 cells measured after 3 days; type: functional, cell-based; details: Huh-7, 72 h
[18] = Cytotoxicity against human JHH-6 cells measured after 3 days; type: functional, cell-based; details: JHH-6, 72 h
[19] = system: CAL-12T; assay: Cytotoxicity against human CAL-12T cells measured after 3 days; type: functional, cell-based; details: 72 h
[20] = Cytotoxicity against human LUDLU-1 cells measured after 3 days; type: functional, cell-based; details: LUDLU-1, 72 h
[21] = system: KMS-12-BM; assay: Cytotoxicity against human KMS-12-BM cells measured after 3 days; type: functional, cell-based; details: 72 h
[22] = system: KMS-11; assay: Cytotoxicity against human KMS-11 cells measured after 3 days; type: functional, cell-based; details: KMS-11, 72 h
[23] = system: U-266; assay: Cytotoxicity against human U266B1 cells measured after 3 days; type: functional, cell-based; details: U-266, 72 h
[24] = Cytotoxicity against human NCE-G 124 cells measured after 3 days; type: functional, cell-based; details: NCE-G 124, 72 h
[25] = system: T98G; assay: Cytotoxicity against human T98G cells measured after 3 days; type: functional, cell-based; details: 72 h
[26] = Cytotoxicity against human NCE-G 140 cells measured after 3 days; type: functional, cell-based; details: NCE-G 140, 72 h
[27] = Cytotoxicity against human NCE-G 121 cells measured after 3 days; type: functional, cell-based; details: NCE-G 121, 72 h
[28] = Cytotoxicity against human EB1 cells measured after 3 days; type: functional, cell-based; details: EB1, 72 h
[29] = system: HT; assay: Cytotoxicity against human HT cells measured after 3 days; type: functional, cell-based; details: 72 h
[30] = Cytotoxicity against human Sc-1 cells measured after 3 days; type: functional, cell-based; details: SC-1, 72 h
[31] = system: MC116; assay: Cytotoxicity against human MC116 cells measured after 3 days; type: functional, cell-based; details: MC116, 72 h
[32] = system: MHH-PREB-1; assay: Cytotoxicity against human MHH-PREB-1 cells measured after 3 days; type: functional, cell-based; details: MHH-PREB-1, 72 h
[33] = system: OCI-LY19; assay: Cytotoxicity against human OCILY19 cells measured after 3 days; type: functional, cell-based; details: OCI-LY19, 72 h
[34] = system: SR; assay: Cytotoxicity against human SR cells measured after 3 days; type: functional, cell-based; details: 72 h
[35] = Cytotoxicity against human OVCA429 cells measured after 3 days; type: functional, cell-based; details: OVCA429, 72 h
[36] = system: HCC1187; assay: Cytotoxicity against human HCC1187 cells measured after 3 days; type: functional, cell-based; details: HCC1187, 72 h
[37] = system: HCC70; assay: Cytotoxicity against human HCC70 cells measured after 3 days; type: functional, cell-based; details: HCC70, 72 h
[38] = system: MDA-MB-361; assay: Cytotoxicity against human MDA-MB-361 cells measured after 3 days; type: functional, cell-based; details: MDA-MB-361, 72 h
[39] = Cytotoxicity against human SUM52PE cells measured after 3 days; type: functional, cell-based; details: 72 h
[40] = system: SUM-159-PT; assay: Cytotoxicity against human SUM159PT cells measured after 3 days; type: functional, cell-based; details: 72 h
[41] = Cytotoxicity against human ATRFLOX cells measured after 3 days; type: functional, cell-based; details: 72 h
[42] = Cytotoxicity against human RKN cells measured after 3 days; type: functional, cell-based; details: 72 h
[43] = Cytotoxicity against human COV318 cells measured after 3 days; type: functional, cell-based; details: COV318, 72 h
[44] = Cytotoxicity against human COV362.4 cells measured after 3 days; type: functional, cell-based; details: COV362.4, 72 h
[45] = system: SW626; assay: Cytotoxicity against human SW626 cells measured after 3 days; type: functional, cell-based; details: SW626, 72 h
[46] = system: SU-DHL10; assay: Cytotoxicity against human SU-DHL-10 cells measured after 3 days; type: functional, cell-based; details: SU-DHL10, 72 h
[47] = Cytotoxicity against human PMF-ko14 cells measured after 3 days; type: functional, cell-based; details: PMF-ko14, 72 h
[48] = Cytotoxicity against human HCC3153 cells measured after 8 days; type: functional, cell-based; details: HCC3153, 192 h
[49] = system: MCF7; assay: Cytotoxicity against human MCF-7-SER cells measured after 8 days; type: functional, cell-based; details: MCF7, 192 h
[50] = system: CWR22R; assay: Cytotoxicity against human 22Rv1 cells after 8 days; type: functional, cell-based; details: 22Rv1, 192 h

With `C/C=C/Cn1cc(-c2ccc(C(C)(C)O)cc2OC)c2cc[nH]c2c1=O` the Activity [1] was “inactive”, the Activity [2] was “inactive” and the IC50 [3] was 20 µM. The IC50 [4] was 20 µM, the IC50 [5] was 16.2 µM and the IC50 [6] was 20 µM.
With `C/C=C/Cn1cc(-c2cc(OC)c(C(=O)N3CCOCC3)cc2OC)c2cc(C)[nH]c2c1=O` the logD [7] was 2.4, the Activity [8] was “Active” and the IC50 [9] was 5 µM. For the same compound, the IC50 [10] was 5 µM, the IC50 [11] was 5 µM and the IC50 [12] was 5 µM. For the same compound, the IC50 [13] was 5 µM, the IC50 [14] was 5 µM and the IC50 [15] was 5 µM. For the same compound, the IC50 [16] was 5 µM, the IC50 [17] was 5 µM and the IC50 [18] was 5 µM. It also gave an IC50 [19] of 5 µM, an IC50 [20] of 5 µM and an IC50 [21] of 5 µM. It also gave an IC50 [22] of 5 µM, an IC50 [23] of 5 µM and an IC50 [24] of 5 µM. It also gave an IC50 [25] of 5 µM, an IC50 [26] of 5 µM and an IC50 [27] of 5 µM. For the same compound, the IC50 [28] was 5 µM, the IC50 [29] was 5 µM and the IC50 [30] was 5 µM. The IC50 [31] was 5 µM, the IC50 [32] was 5 µM and the IC50 [33] was 5 µM. For the same compound, the IC50 [34] was 5 µM, the IC50 [35] was 5 µM and the IC50 [36] was 5 µM. The IC50 [37] was 5 µM, the IC50 [38] was 5 µM and the IC50 [39] was 5 µM. The IC50 [40] was 5 µM, the IC50 [41] was 5 µM and the IC50 [42] was 5 µM. For the same compound, the IC50 [43] was 5 µM, the IC50 [44] was 5 µM and the IC50 [45] was 5 µM. It also gave an IC50 [46] of 5 µM, an IC50 [47] of 5 µM and an IC50 [48] of 2 µM. The IC50 [49] was 2 µM and the IC50 [50] was 2 µM.
